From patent publication US20130217694A1, “METHOD OF REDUCING THE SEVERITY OF INFLAMMATORY DERMATOLOGICAL CONDITIONS” (Allergan, Inc.., priority 2003, published 2013)

What was measured:
[1] = target: T1, hamster α-1B adrenergic receptor (Mesocricetus auratus, UniProt P18841); type: cell-based; conditions: for hamster α1B % E: percent efficacy relative to phenylephrine; for agonist activity at the α-1B receptor: result in words
T1 sequence (P18841 1-515): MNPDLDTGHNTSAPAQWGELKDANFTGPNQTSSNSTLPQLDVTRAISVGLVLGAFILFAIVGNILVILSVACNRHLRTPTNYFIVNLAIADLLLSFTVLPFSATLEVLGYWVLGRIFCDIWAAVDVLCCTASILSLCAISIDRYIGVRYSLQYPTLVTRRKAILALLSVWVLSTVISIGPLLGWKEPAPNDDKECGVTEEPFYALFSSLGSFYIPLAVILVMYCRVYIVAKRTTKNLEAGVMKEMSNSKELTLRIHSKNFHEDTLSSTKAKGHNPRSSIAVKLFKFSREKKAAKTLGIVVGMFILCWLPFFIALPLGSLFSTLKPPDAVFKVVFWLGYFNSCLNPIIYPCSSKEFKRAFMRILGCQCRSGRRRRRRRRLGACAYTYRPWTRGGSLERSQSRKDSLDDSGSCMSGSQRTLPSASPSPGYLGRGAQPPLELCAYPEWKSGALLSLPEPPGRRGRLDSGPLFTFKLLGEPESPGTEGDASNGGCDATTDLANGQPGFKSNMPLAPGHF
Procedure: (§1) The bovine α-1A and hamster α-1B receptor supernatants were added, in varying amounts, to naive HEK293 cells, which were then incubated for 48 hours. The transduced cell populations were replated at a lower density and grown in media containing 0.25 ug/ml puromycin. […] Receptor density was measured in a prazosin radioligand binding assay.
(§2) Intracellular Ca^+2 responses were measured as follows in HEK293 cells stably expressing either the bovine α-1A or hamster α-1B adrenergic receptor. Between 40,000 to 50,000 cells were plated per well in 96-well poly-D-lysine coated plates in 0.2 ml DMEM containing 10% heat-inactivated fetal calf serum, 1% antibiotic-antimycotic and 0.25 μg/ml puromycin one day prior to use. Cells were washed twice with HBSS supplemented with 10 mM HEPES, 2.0 mM CaCl2 and 2.5 mM probenicid, and subsequently incubated at 37° C. for 60 minutes with 4 μM Fluo-4 (Molecular Probes; Eugene, Oreg.). The extracellular dye was washed from the plates twice prior to placing the plates in the fluorometric imaging plate reader (FLIPR; Molecular Devices; Sunnyvale, Calif.). Ligands were diluted in HBSS and aliquoted into a 96-well microplate. Drugs were tested over the concentration range of 0.64 nM to 10,000 nM. Data for Ca^+2 responses were obtained in arbitrary fluorescence units.

[2] = target: T2, bovine α-1A adrenergic receptor (Bos taurus, UniProt P18130); test: Intracellular Ca+2 response in HEK293 cells expressing bovine α-1A receptor; type: cell-based; conditions: for bovine α1A % E: percent efficacy relative to phenylephrine; for agonist activity at the α-1A receptor: result in words
T2 sequence (P18130 1-466): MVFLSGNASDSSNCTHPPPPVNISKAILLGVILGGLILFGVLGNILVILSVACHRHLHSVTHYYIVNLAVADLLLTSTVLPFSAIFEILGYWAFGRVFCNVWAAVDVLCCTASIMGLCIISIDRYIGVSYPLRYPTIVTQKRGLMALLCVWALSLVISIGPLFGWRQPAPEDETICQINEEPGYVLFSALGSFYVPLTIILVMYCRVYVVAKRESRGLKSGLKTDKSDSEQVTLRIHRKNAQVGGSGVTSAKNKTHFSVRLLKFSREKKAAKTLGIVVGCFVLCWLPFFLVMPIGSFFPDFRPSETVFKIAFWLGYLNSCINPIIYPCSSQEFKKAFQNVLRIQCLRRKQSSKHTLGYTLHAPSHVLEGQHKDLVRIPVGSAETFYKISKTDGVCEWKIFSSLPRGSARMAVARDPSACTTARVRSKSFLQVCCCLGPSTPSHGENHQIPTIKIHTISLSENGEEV
Procedure: as §1, §2

[3] = target: T3, human α-2A receptor (Homo sapiens, UniProt P08913); conditions: percent efficacy relative to brimonidine
T3 sequence (P08913 1-465): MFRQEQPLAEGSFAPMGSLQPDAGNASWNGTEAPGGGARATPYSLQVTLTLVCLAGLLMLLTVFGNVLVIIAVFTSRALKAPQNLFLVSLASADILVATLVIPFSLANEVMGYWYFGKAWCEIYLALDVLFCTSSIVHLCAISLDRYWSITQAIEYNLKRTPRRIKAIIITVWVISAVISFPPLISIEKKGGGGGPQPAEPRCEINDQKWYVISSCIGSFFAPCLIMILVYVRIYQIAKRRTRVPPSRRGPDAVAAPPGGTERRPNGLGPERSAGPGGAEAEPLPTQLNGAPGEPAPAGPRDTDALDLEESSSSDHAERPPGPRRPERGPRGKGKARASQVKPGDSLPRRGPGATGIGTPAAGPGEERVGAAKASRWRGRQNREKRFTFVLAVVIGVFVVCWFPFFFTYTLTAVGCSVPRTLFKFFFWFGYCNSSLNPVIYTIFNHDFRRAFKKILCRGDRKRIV
Procedure: (§3) The human α-2A and α-2C receptor supernatants were added, in varying amounts, to naive PC12 cells, which were then incubated for 48 hours. The transduced cell populations were replated at a lower density and grown in media containing 100 ug/ml puromycin.
(§4) Intracellular cAMP measurement was performed as follows. PC12 cells stably expressing the human α-2A or human α-2C adrenergic receptors were plated in 96-well poly-D-lysine coated plates at a density of 30,000 cells per well in 100 μl DMEM supplemented with 10% horse serum, 5% heat inactivated fetal bovine serum, 1% antibiotic-antimycotic and 100 μg/ml puromycin. Cells were grown overnight at 37° C. and 5% CO2. Cells were dosed by adding an equal volume of media containing IBMX (to a final concentration of 1 mM), forskolin (to a final concentration of 10 μM) and the appropriate drug dilution (to a final concentration of between 10^−5 M and 10^−12 M). After a 10 minute incubation, the media was aspirated and the cells lysed with 200 μl lysis buffer (Amersham Biosciences; Piscataway, N.J.). Plates were stored at −20° C. for up to 24 hours prior to assay. Intracellular cAMP was determined using the Biotrak cAMP enzyme immunoassay system (Amersham Biosciences) according to the manufacturer's instructions. Plates were read on a plate reader at 450 nm.

[4] = target: T4, human α-2C receptor (Homo sapiens, UniProt P18825); test: Inhibition of forskolin-induced cAMP accumulation in PC12 cells expressing human α-2C receptor; type: cell-based; conditions: percent efficacy relative to brimonidine
T4 construct: expressed in transfected cells; host or cells: PC12 cells (retroviral vector pCL BABE Puro)
T4 sequence (P18825 1-462): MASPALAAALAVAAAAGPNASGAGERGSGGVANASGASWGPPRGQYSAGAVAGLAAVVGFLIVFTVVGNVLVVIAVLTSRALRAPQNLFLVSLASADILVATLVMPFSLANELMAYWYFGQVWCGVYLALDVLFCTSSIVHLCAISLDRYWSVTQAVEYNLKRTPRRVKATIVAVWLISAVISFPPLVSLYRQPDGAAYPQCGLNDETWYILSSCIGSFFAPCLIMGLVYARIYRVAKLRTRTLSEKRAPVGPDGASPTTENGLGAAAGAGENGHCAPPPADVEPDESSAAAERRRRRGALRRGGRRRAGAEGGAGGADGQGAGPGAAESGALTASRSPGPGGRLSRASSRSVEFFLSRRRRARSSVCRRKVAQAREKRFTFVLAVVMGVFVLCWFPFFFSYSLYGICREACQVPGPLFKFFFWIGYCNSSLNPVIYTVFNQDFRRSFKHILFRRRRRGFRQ
Procedure: as §3, §4

[5] = system: mice; test: Sulprostone-induced tactile hypersensitivity in mice; type: in vivo, mouse; conditions: for analgesic activity in sulprostone-induced tactile hypersensitivity: result in words; for tactile (mechanical) hypersensitivity score: Sulprostone (200 ng IT), cumulative score 0 to 16, mean ± SEM
Procedure: The activity of a synthetic EP1/EP3 receptor-selective prostaglandin agonist, sulprostone, also was assayed.
(§5) Spinal drug injections were performed as follows. […] Briefly, a sterile 30-gauge ½ inch needle attached to a microsyringe was inserted between the L5 and L6 vertebrae. The mouse was held firmly by the pelvic girdle in one hand, while the syringe was held in the other hand at an angle of approximately 20° above the vertebral column. The needle was inserted into the tissue to one side of the L6 spinous process, into the groove between the spinous and transverse processes. The needle angle was decreased to about 10°, and the needle slowly advanced forward into the intervertebral space until a pop was felt and there was a visible serpentine tail movement. Compounds were slowly injected in the subarachnoid space in a volume of 5 μl. Each compound was tested at multiple doses. The minimal efficacious dose was used for all subsequent experiments.
(§6) Sensitivity to light touch was quantified by scoring the response of mice to light stroking of their flanks with a small paintbrush, which is not normally painful. […] Statistical calculations of significance for in vivo studies were done using a two-tailed Students t-test.

[6] = system: mice; test: NMDA-induced tactile hypersensitivity in mice; type: in vivo, mouse; conditions: for tactile (mechanical) hypersensitivity score: NMDA (100 ng IT), cumulative score 0 to 16, mean ± SEM; for inhibition of NMDA-induced tactile hypersensitivity: result in words
Procedure: as §5, §6

[7] = system: mice; test: Phenylephrine-induced tactile hypersensitivity in mice; type: in vivo, mouse; conditions: for tactile (mechanical) hypersensitivity score: Phenylephrine (100 ng/kg I.P.), cumulative score 0 to 16, mean ± SEM
Procedure: To dissect the contribution of the sympathetic nervous system to sensory sensitization, mouse models having different mechanisms of sensory sensitization were developed. Tactile hypersensitivity was measured in mice following intrathecal or intraperitoneal injection of an inducing agent by scoring the response to light stroking of the mouse flank with a paintbrush.
Spinal drug injections were performed as follows. Mice (20-30 g) were injected intrathecally as described in Hylden and Wilcox, Eur. J. Pharmacol. 67:313-316 (1980). Briefly, a sterile 30-gauge ½ inch needle attached to a microsyringe was inserted between the L5 and L6 vertebrae. The mouse was held firmly by the pelvic girdle in one hand, while the syringe was held in the other hand at an angle of approximately 20° above the vertebral column. The needle was inserted into the tissue to one side of the L6 spinous process, into the groove between the spinous and transverse processes. The needle angle was decreased to about 10°, and the needle slowly advanced forward into the intervertebral space until a pop was felt and there was a visible serpentine tail movement. Compounds were slowly injected in the subarachnoid space in a volume of 5 μl. Each compound was tested at multiple doses. The minimal efficacious dose was used for all subsequent experiments.
Sensitivity to light touch was quantified by scoring the response of mice to light stroking of their flanks with a small paintbrush, which is not normally painful. […] The scores were summed to generate a cumulative score of 0 to 16 as described in Minami et al., Pain 57:217-223 (1994). Statistical calculations of significance for in vivo studies were done using a two-tailed Students t-test.

SMILES	hamster α1B % E [1] [%]	bovine α1A % E [2] [%]	human α2C % E [4] [%]	analgesic activity in sulprostone-induced tactile hypersensitivity ([5]; wildtype mice)	tactile (mechanical) hypersensitivity score [6]	tactile (mechanical) hypersensitivity score [5]	tactile (mechanical) hypersensitivity score [7]	other results
Clc1ccc2nsnc2c1NC1=NCCN1 [Tizanidine]	61	63	85					agonist activity at the α-1B receptor [1]: partial agonists; agonist activity at the α-1A receptor [2]: partial agonists; human α2A % E [3]: 93%
COc1cc2nc(N3CCN(C(=O)c4ccco4)CC3)nc(N)c2cc1OC [Prazosin]				no analgesic activity				analgesic activity in sulprostone-induced tactile hypersensitivity ([5]; α-2C knockout mice): no analgesic activity
COc1ccccc1N1CCN(CCCNc2c(C)c(=O)n(C)c(=O)n2C)CC1 [5-MU, 5-methyl urapidil]					13.3 ± 0.8	12.0 ± 1.0	5.0 ± 1.0	inhibition of phenylephrine-induced tactile hypersensitivity ([7]; wildtype mice, result in words): block the hypersensitive response
CN[C@H](CC(=O)O)C(=O)O [NMDA]								dose of maximal tactile hypersensitivity effect ([6]; intrathecal, wildtype mice): 100 ng
CCN(Cc1cc(Br)ccc1OCc1ccccc1)c1ccc(C(=O)O)cn1 [EP1 antagonist]				completely blocked	11.4 ± 1.53	4.0 ± 1.2	9.8 ± 0.7	
CC12CC3CC(C)(C1)CC(N)(C3)C2.Cl [Memantine, 1-amino-3,5-dimethyladamantane hydrochloride]					4.2 ± 0.9	14.3 ± 0.8	11.0 ± 0.7	inhibition of NMDA-induced tactile hypersensitivity ([6]; wildtype mice): blocked
CNC[C@H](O)c1cccc(O)c1 [Phenylephrine]	110	110	87					strongly tactile hypersensitivity-inducing dose ([7]; i.p., wildtype mice): 0.03 µg/kg; dose resulting in maximal hypersensitivity ([7]; i.p., α-2A knockout mice): 0.0003 µg/kg; dose resulting in maximal hypersensitivity ([7]; i.p., α-2C knockout mice): 0.0001 µg/kg; dose at which significant tactile hypersensitivity starts ([7]; intraperitoneal, wildtype mice): 0.003 µg/kg; dose at which significant tactile hypersensitivity starts ([7]; intrathecal, wildtype mice): 3 ng
NCC1(CC(=O)O)CCCCC1 [Gabapentin]				inhibited tactile hypersensitivity	3.7 ± 0.8	3.2 ± 0.5	13.0	inhibition of NMDA-induced tactile hypersensitivity ([6]; wildtype mice): inhibited tactile hypersensitivity
CS(=O)(=O)NC(=O)CCC/C=C\C[C@H]1C(=O)C[C@@H](O)[C@@H]1/C=C/[C@@H](O)COc1ccccc1 [Sulprostone]								maximal dose for tactile hypersensitivity ([5]; intrathecal, wild-type and α-2C knockout mice): 200 ng; maximally effective dose for tactile hypersensitivity ([5]; intrathecal, α-2A knockout mice): 30 ng
Cc1cccc([C@H](C)c2cnc[nH]2)c1C [Dexmedetomidine]	62	59	90					agonist activity at the α-1B receptor [1]: partial agonists; agonist activity at the α-1A receptor [2]: partial agonists; human α2A % E [3]: 93%
